From ChEMBL document CHEMBL1201862, “PubChem BioAssay data set” (2004)
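Briefly, cells in 96-well plates were exposed to five compound concentrations for 48 h, and endpoints were estimated by linear interpolation. The concentration for 50% growth inhibition is given as GI50.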 Activity calls are given as the source filed them. Rule as the data show it: active = GI50 up to about 1.1 µM and inactive = higher.

Columns and labels:
Test in all cases: NCI anticancer screen, dose series, 48 h
HOP-92 = system: HOP-92
SR = system: SR
SF-268 = system: SF-268
UO-31 = system: UO-31
NCI-H23 = system: NCI-H23
SK-OV-3 = system: SK-OV-3
ACHN = system: ACHN
HT-29 = system: HT-29
MOLT-4 = system: MOLT-4
BT-549 = system: BT-549
OVCAR-3 = system: OVCAR-3
HL-60 = system: HL-60
HOP-62 = system: HOP-62
IGROV-1 = system: IGROV-1
SK-MEL-2 = system: SK-MEL-2
A549 = system: A549
OVCAR-5 = system: OVCAR-5
SK-MEL-5 = system: SK-MEL-5
KM12 = system: KM12
RXF 393 = system: RXF 393
PC-3 = system: PC-3
RPMI-8226 = system: RPMI-8226
NCI/ADR-RES = system: NCI/ADR-RES
Malme-3M = system: Malme-3M
OVCAR-4 = system: OVCAR-4
OVCAR-8 = system: OVCAR-8
SNB-19 = system: SNB-19
M14 = system: M14
SF-295 = system: SF-295
SNB-75 = system: SNB-75
Hs-578T = system: Hs-578T
K562 = system: K562
HCT-15 = system: HCT-15
CAKI-1 = system: CAKI-1
CCRF-CEM = system: CCRF-CEM
COLO 205 = system: COLO 205
MCF7 = system: MCF7
EKVX = system: EKVX
LOX IMVI = system: LOX IMVI
SK-MEL-28 = system: SK-MEL-28
DU-145 = system: DU-145
SN12C = system: SN12C
786-0 = system: 786-0
HCT-116 = system: HCT-116
NCI-H522 = system: NCI-H522
MDA-MB-435 = system: MDA-MB-435
SF-539 = system: SF-539
T47D = system: T47D
UACC-62 = system: UACC-62
SW-620 = system: SW-620
NCI-H226 = system: NCI-H226
MDA-N = system: MDA-N
UACC-257 = system: UACC-257
TK-10 = system: TK-10
U-251 = system: U-251
A498 = system: A498
NCI-H460 = system: NCI-H460
MDA-MB-231 = system: MDA-MB-231
HCC 2998 = system: HCC 2998

What does the source list for `COc1cc(/C=N\c2nc(-c3ccc(NS(=O)(=O)c4ccc(Cl)c(OC)c4)cc3)cs2)ccc1O`?
GI50 (HOP-92): 24.9 µM (inactive); GI50 (SR): 30.8 µM (inactive); GI50 (SF-268): 37.6 µM (inactive); GI50 (UO-31): 60.8 µM (inactive); GI50 (NCI-H23): 31.1 µM (inactive); GI50 (SK-OV-3): > 100 µM (inactive); GI50 (ACHN): 50.7 µM (inactive); GI50 (HT-29): > 100 µM (inactive); GI50 (MOLT-4): 16.4 µM (inactive); GI50 (BT-549): 28.8 µM (inactive); GI50 (OVCAR-3): 69.5 µM (inactive); GI50 (HL-60): 26.1 µM (inactive); GI50 (HOP-62): > 100 µM (inactive); GI50 (IGROV-1): 43.3 µM (inactive); GI50 (SK-MEL-2): 32.2 µM (inactive); GI50 (A549): 74.6 µM (inactive); GI50 (OVCAR-5): > 100 µM (inactive); GI50 (SK-MEL-5): 62.8 µM (inactive); GI50 (KM12): 29.2 µM (inactive); GI50 (RXF 393): 27.9 µM (inactive); GI50 (PC-3): 50.8 µM (inactive); GI50 (RPMI-8226): 21 µM (inactive); GI50 (NCI/ADR-RES): > 100 µM (inactive); GI50 (Malme-3M): 45 µM (inactive); GI50 (OVCAR-4): 35.2 µM (inactive); GI50 (OVCAR-8): 50.1 µM (inactive); GI50 (SNB-19): > 100 µM (inactive); GI50 (M14): 95.5 µM (inactive); GI50 (SF-295): > 100 µM (inactive); GI50 (SNB-75): 89.5 µM (inactive); GI50 (Hs-578T): 62.5 µM (inactive); GI50 (K562): 27.9 µM (inactive); GI50 (HCT-15): > 100 µM; GI50 (CAKI-1): > 100 µM (inactive); GI50 (CCRF-CEM): 30.1 µM (inactive); GI50 (COLO 205): 30.1 µM (inactive); GI50 (MCF7): 21 µM (inactive); GI50 (EKVX): 26.7 µM (inactive); GI50 (LOX IMVI): 35.7 µM (inactive); GI50 (SK-MEL-28): 33.2 µM (inactive); GI50 (DU-145): > 100 µM (inactive); GI50 (SN12C): 42.3 µM (inactive); GI50 (786-0): > 100 µM (inactive); GI50 (HCT-116): 37.7 µM (inactive); GI50 (NCI-H522): 18.8 µM (inactive); GI50 (MDA-MB-435): 35.4 µM (inactive); GI50 (SF-539): 47.5 µM (inactive); GI50 (T47D): 17.4 µM (inactive); GI50 (UACC-62): 9.71 µM (inactive); GI50 (SW-620): 41.1 µM (inactive); GI50 (NCI-H226): > 100 µM (inactive); GI50 (MDA-N): 29.6 µM (inactive)

With `NC1CC(N)c2c(Br)sc(Br)c21` (stereo not given) as the compound, how does the GI50 (HOP-92) read?
Its GI50 is 28.6 µM (inactive).

And the GI50 (UACC-257)?
Its GI50 is > 100 µM (inactive).

What about the GI50 (SR) of the same compound?
The GI50 was 59.4 µM (inactive).

And the GI50 (SF-268)?
Its GI50 is 67.3 µM (inactive).

And the GI50 (UO-31)?
Its GI50 is 41.4 µM (inactive).

What about the GI50 (NCI-H23) of the same compound?
The GI50 was > 100 µM (inactive).

And the GI50 (SK-OV-3)?
Its GI50 is > 100 µM (inactive).

What about the GI50 (ACHN) of the same compound?
Its GI50 is > 100 µM (inactive).

What about the GI50 (HT-29) of the same compound?
Its GI50 is > 100 µM (inactive).

What about the GI50 (MOLT-4) of the same compound?
Its GI50 is 67.5 µM (inactive).

What about the GI50 (TK-10) of the same compound?
The GI50 was > 100 µM (inactive).

What about the GI50 (BT-549) of the same compound?
Its GI50 is > 100 µM (inactive).

And the GI50 (OVCAR-3)?
Its GI50 is > 100 µM (inactive).

What about the GI50 (HOP-62) of the same compound?
The GI50 was 86.1 µM (inactive).

What about the GI50 (IGROV-1) of the same compound?
The GI50 was 39.1 µM (inactive).

And the GI50 (SK-MEL-2)?
Its GI50 is > 100 µM (inactive).

What about the GI50 (A549) of the same compound?
Its GI50 is 97.7 µM (inactive).

And the GI50 (OVCAR-5)?
The GI50 was > 100 µM (inactive).

What about the GI50 (SK-MEL-5) of the same compound?
The GI50 was > 100 µM (inactive).

What about the GI50 (KM12) of the same compound?
Its GI50 is > 100 µM (inactive).

And the GI50 (NCI/ADR-RES)?
The GI50 was > 100 µM (inactive).

And the GI50 (Malme-3M)?
The GI50 was > 100 µM (inactive).

What about the GI50 (OVCAR-4) of the same compound?
Its GI50 is > 100 µM (inactive).

What about the GI50 (OVCAR-8) of the same compound?
The GI50 was 55.6 µM (inactive).

What about the GI50 (U-251) of the same compound?
Its GI50 is > 100 µM (inactive).

And the GI50 (M14)?
The GI50 was > 100 µM (inactive).

And the GI50 (SF-295)?
Its GI50 is 98.9 µM (inactive).

And the GI50 (Hs-578T)?
The GI50 was > 100 µM (inactive).

What about the GI50 (K562) of the same compound?
The GI50 was > 100 µM (inactive).

And the GI50 (A498)?
Its GI50 is > 100 µM (inactive).

What about the GI50 (HCT-15) of the same compound?
Its GI50 is over 100 µM.

What about the GI50 (CAKI-1) of the same compound?
The GI50 was > 100 µM (inactive).

And the GI50 (CCRF-CEM)?
Its GI50 is > 100 µM (inactive).

What about the GI50 (NCI-H460) of the same compound?
The GI50 was > 100 µM (inactive).

And the GI50 (COLO 205)?
The GI50 was > 100 µM (inactive).

And the GI50 (MCF7)?
The GI50 was > 100 µM (inactive).

What about the GI50 (EKVX) of the same compound?
The GI50 was > 100 µM (inactive).

What about the GI50 (LOX IMVI) of the same compound?
The GI50 was 58.1 µM (inactive).

What about the GI50 (SK-MEL-28) of the same compound?
The GI50 was > 100 µM (inactive).

And the GI50 (DU-145)?
Its GI50 is > 100 µM (inactive).

What about the GI50 (SN12C) of the same compound?
Its GI50 is > 100 µM (inactive).

And the GI50 (786-0)?
The GI50 was 95.3 µM (inactive).

And the GI50 (MDA-MB-231)?
The GI50 was > 100 µM (inactive).

What about the GI50 (HCT-116) of the same compound?
The GI50 was 87.9 µM (inactive).

And the GI50 (NCI-H522)?
Its GI50 is 44.1 µM (inactive).

And the GI50 (HCC 2998)?
The GI50 was 55.8 µM (inactive).

What about the GI50 (MDA-MB-435) of the same compound?
The GI50 was > 100 µM (inactive).

What about the GI50 (SF-539) of the same compound?
Its GI50 is > 100 µM (inactive).

And the GI50 (T47D)?
The GI50 was 54 µM (inactive).

And the GI50 (UACC-62)?
Its GI50 is > 100 µM (inactive).

What about the GI50 (SW-620) of the same compound?
Its GI50 is 62.2 µM (inactive).

And the GI50 (NCI-H226)?
Its GI50 is 77.1 µM (inactive).

What about the GI50 (MDA-N) of the same compound?
The GI50 was > 100 µM (inactive).
